Reference: patent publication US9572831B2, “Composition and method for sulfated non-anticoagulant low molecular weight heparins in cancer and tumor metastasis” (priority 2013, dated 2017)
Where two headings read alike, the source gives them in different places.

Key:
[1] = system: 253JBV bladder cells; assay: Western blots of bladder cancer cell proteins; assay type: cell-based; details: 48 hour; Cisplatin 10 ug/ml, S-NACH 20 ug/ml, LMWH 20 ug/ml
Protocol: 253JBV bladder cells were cultured and treated [Control (PBS), Cisplatin (10 ug/ml), S-NACH (20 ug/ml), LMWH (20 ug/ml)] for 48 hour. Total proteins were collected to quantitate expression of the proteins using western blots.

[2] = system: intrinsic pathway of the coagulation cascade; assay: APTT assay; assay type: biochemical
Protocol: Activated Partial Thromboplastin Time (aPTT) is sensitive to all factors in the intrinsic pathway of the coagulation cascade and the presence of heparin. The aPTT was measured for each of the 8 USP heparins, using the ACL 8000 Beckman Coulter coagulation analyzer and the Trinity Biotech Trini CLOT Automated aPTT assay kit (Berkeley Heights, N.J.). Additionally, aPTT was measured for heparin, LMWH, and S-NACH.

[3] = Mouse deaths over all experiments; assay type: in vivo, mice
Protocol: In the second experiment, a higher concentration of S-SNACH (20 mg/kg) was used. […] The percentile death of mice was high in the LMWH group and reached 6 animals (50%) at the end of the experiment due to internal bleeding after two invasive surgeries. At the end of all experiments, the percentile death among all groups was calculated and compared.
The average dose of LMWH for enoxaparin in humans is 1.0-1.5 mg/kg and relatively higher in mice. In the experiment performed in the present invention, 5-10 mg/kg was used for LMWH (tinzaparin) and as high as 20-100 mg/kg was used for SNACH.

[4] = system: MPanc96-luc cells; assay type: in vivo, athymic nude mice; details: S-NACH 20 mg/kg s.c. daily, gemcitabine 100 mg/kg i.p. twice a week, 28 days
Protocol: MPanc96-luc cells were harvested as described above and were orthotopically implanted (2×10^5 cells in 50 μl PBS per mouse) in the pancreas of anesthetized athymic nude mice. Just before treatment initiation, animals (n=10 per group) were randomized by tumor mass detected by an in vivo imaging system (IVIS, described below). Heparin derivatives S-NACH at 20 mg/kg and tinzaparin at 5 mg/kg were administered subcutaneously daily. Gemcitabine at 100 mg/kg was injected intraperitoneally twice a week alone or in combination with either S-NACH or tinzaparin. All mice used for treatment response evaluations were euthanized after 28 days. See Table 2 for the protocol of the study. Imaging was performed once per week to monitor tumor growth. Mice bearing MPanc96-luc tumors were anaesthetized using isoflurane, injected subcutaneously with 50 μl D-luciferin (30 mg/ml), then imaged. Photographic and luminescence images were taken at constant exposure time. Xenogen IVIS® Living Image software version 3.2 was used to quantify non-saturated bioluminescence in regions of interest. Light emission between 5.5×10^6-7.0×10^10 photons was assumed to be indicative of viable luciferase-labeled tumor cells while emissions below this range were considered as background. Bioluminescence was quantified as photons/second for each region of interest. In vivo tumor kinetic growth and metastasis were monitored by signal intensity. Ex vivo imaging was performed to confirm the signal intensity in the tumors after the termination. All specimens were analyzed by histology for routine analysis. Specimens were fixed in 10% buffered formalin, processed routinely, and embedded in paraffin. Then, after fixation, the specimens were transferred into the embedding chambers to hold the specimens in position until the paraffin became solid to prevent further rotation. Four μm serial sections were cut, and then stained using haematoxylin and eosin. Sections were evaluated for various pathologic parameters using a light microscope (Leica, Buffalo Grove, Ill.).

[5] = Whole blood clotting times by Sonoclot Analyzer and TEG; assay type: in vivo; details: intravenous, 10 mg/kg, mice, n=5
Protocol: Two heparins, commercial formulation Enoxaparin and non-anticoagulant heparin (NACH) including S-NACH or S-SNACH were evaluated for their effects on coagulation. Whole blood clotting times were measured by the Sonoclot Analyzer (left panel) and by TEG (right panel); n=5.

[6] = system: MCF7-R cells; assay: Nanoparticle Dox formulations in mice with MCF7-R tumors; assay type: in vivo
Protocol: FIG. 20 depicts anti-tumor efficacy of nanoparticle formulations encapsulating Doxorubicin with and without LMWHs vs. un-encapsulated Doxorubicin in mice with MCF7-R Tumors, in accordance with embodiments of the present invention. […] Treatments, as shown in legend, were begun after tumors had reached a size of 50-100 mm^3. Tumor volumes were measured daily. Animals were euthanized when Controls reached a size of 2000 mm^3 (as per IACUC approval).
In vivo data using in mice xenograft (MCF-7R) are shown in Table 5 (amounts of doxorubicin and NACH injected in all cases were 0.625 mg/kg and 2.5 mg/kg body weight).

[7] = system: MCF7-WT cells; assay: Nanoparticle Dox formulations in mice with MCF7-WT tumors; assay type: in vivo; details: treatment begun 10 days after inoculation; n=8
From the text: Mice were inoculated with 1.4×10^7 MCF7-WT cells. […] Tumor volume measurements were obtained over time course shown. Values are mean tumor volume in mm^3±SEM, n=8 mice/group.

With `N.N.[Cl][Pt][Cl]` [Cisplatin] the E-cadherin protein expression [1] was “increased” and the MMP-2 protein expression [1] was “reduced”.

In the case of Heparin, the aPTT [2] is reported as “increased aPTT in a dose-dependent manner” and the “rate of death among the mice” value [3] is reported as “higher mortality”.

For `Nc1ccn([C@@H]2O[C@H](CO)[C@@H](O)C2(F)F)c(=O)n1` [Gemcitabine], the “tumor luciferin signal intensity” value [4] was “reduced”, the tumor weights [4] was “reduced” and the “tumor luciferin signal intensity” value ([4]; listed as GEM) was “suppression of tumor signal intensity”.

With Enoxaparin the “clot times (whole blood clotting time, time to clot initiation)” value [5] was “significantly prolonged”.

In the case of `COc1cccc2c1C(=O)c1c(O)c3c(c(O)c1C2=O)C[C@@](O)(C(=O)CO)C[C@@H]3O[C@H]1C[C@H](N)[C@H](O)[C@H](C)O1` [Doxorubicin], the “tumor volume over time” value ([6]; FIG. 20 Panel A) is reported as “same pattern of tumor growth as untreated controls”, the “Tumor Mass” value ([6]; doxorubicin 0.625 mg/kg, NACH 2.5 mg/kg body weight, mean) is reported as 1.3 g and the “tumor growth (tumor volume)” value [7] is reported as “effectively inhibited”.
